Measurements published in patent EP4273147A1, “SUBSTITUTED SPIROLACTAMS, SALTS THEREOF AND THEIR USE AS HERBICIDALLY ACTIVE SUBSTANCES” (Bayer Aktiengesellschaft, priority 2022, dated 2023).

Assays:
ZEAMX [1] = assay: Post-emergence effects on crop plants (Table F1); format: in vivo, Zea mays; conditions: application rate 320 g/ha, crop plant ZEAMX
Excerpt: (§1) 2 to 3 weeks after sowing, the test plants were sprayed in the single-leaf stage.

ECHCG [2] = assay: Herbicidal post-emergence action, section E (Table E5); format: in vivo, Echinochloa crus-galli; conditions: application rate 320 g/ha; assessed visually after ca. 3 weeks
Excerpt: as §1

BRSNW [3] = assay: Post-emergence effects on crop plants (Table F5); format: in vivo, Brassica napus; conditions: application rate 80 g/ha, crop plant BRSNW
Excerpt: as §1

GLXMA [4] = assay: Post-emergence effects on crop plants (Table F4); format: in vivo, Glycine max; conditions: application rate 80 g/ha, crop plant GLXMA
Excerpt: as §1

BRSNW [5] = assay: Pre-emergence effects on crop plants (Table D5); format: in vivo, Brassica napus; conditions: crop plant; application rate 320 g/ha; visual grading after ca. 3 weeks
ORYZA [6] = assay: Pre-emergence effects on crop plants (Table D3); conditions: crop plant; application rate 320 g/ha; visual grading after ca. 3 weeks
TRZAS [7] = assay: Pre-emergence effects on crop plants (Table D2); format: in vivo, Triticum aestivum; conditions: crop plant; application rate 320 g/ha; visual grading after ca. 3 weeks
MATIN [8] = assay: Herbicidal pre-emergence action (Table A4); format: in vivo, Matricaria inodora; conditions: application rate 1280 g/ha; visual grading after ca. 3 weeks
Outline: (§2)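 Two-species sowings per pot, mono- plus dicotyledonous weeds; soil type sandy loam, seed covered after sowing.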

VERPE [9] = assay: Herbicidal pre-emergence action, section C (Table C11); format: in vivo, Veronica persica; conditions: application rate 80 g/ha; visual grading after ca. 3 weeks
SETVI [10] = assay: Herbicidal pre-emergence action (Table A5); format: in vivo, Setaria viridis; conditions: application rate 320 g/ha; visual grading after ca. 3 weeks
Outline: as §2

GLXMA [11] = assay: Pre-emergence effects on crop plants (Table D4); format: in vivo, Glycine max; conditions: crop plant; application rate 320 g/ha; visual grading after ca. 3 weeks
ECHCG [12] = assay: Herbicidal pre-emergence action (Table A2); format: in vivo, Echinochloa crus-galli; conditions: application rate 320 g/ha; visual grading after ca. 3 weeks
Outline: as §2

ORYZA [13] = assay: Post-emergence effects on crop plants (Table F3); format: in vivo, Oryza sativa; conditions: application rate 320 g/ha, crop plant ORYZA
Excerpt: as §1

VIOTR [14] = assay: Herbicidal pre-emergence action, section C (Table C12); format: in vivo, Viola tricolor; conditions: application rate 320 g/ha; visual grading after ca. 3 weeks
SETVI [15] = assay: Herbicidal pre-emergence action, section C (Table C10); format: in vivo, Setaria viridis; conditions: application rate 80 g/ha; visual grading after ca. 3 weeks
Excerpt: Seeds of mono- and dicotyledonous weed plants and crop plants were sown, in plastic or organic planting pots, in sandy loam and covered with soil. The compounds according to the invention, formulated in the form of wettable powders (WP) or as emulsifiable concentrates (EC), were applied to the surface of the covering soil as aqueous suspension or emulsion, with the addition of 0.5% of an additive, at an application rate of 600 1 of water/ha (converted). Following treatment, the pots were placed in a greenhouse and kept under optimum growth conditions for the test plants.

ALOMY [16] = assay: Herbicidal pre-emergence action, section C (Table C2); format: in vivo, Alopecurus myosuroides; conditions: application rate 320 g/ha; visual grading after ca. 3 weeks
POLCO = assay: Herbicidal post-emergence action, section E (Table E7); format: in vivo, Polygonum convolvulus; conditions: application rate 320 g/ha; assessed visually after ca. 3 weeks
Excerpt: as §1

VERPE [17] = assay: Herbicidal post-emergence action, section E (Table E9); format: in vivo, Veronica persica; conditions: application rate 320 g/ha; assessed visually after ca. 3 weeks
Excerpt: as §1

DIGSA = assay: Herbicidal pre-emergence action, section C (Table C5); format: in vivo, Digitaria sanguinalis; conditions: application rate 80 g/ha; visual grading after ca. 3 weeks
TRZAS [18] = assay: Post-emergence effects on crop plants (Table F2); format: in vivo, Triticum aestivum; conditions: application rate 320 g/ha, crop plant TRZAS
Excerpt: as §1

ECHCG [19] = assay: Herbicidal pre-emergence action, section C (Table C6); format: in vivo, Echinochloa crus-galli; conditions: application rate 80 g/ha; visual grading after ca. 3 weeks
STEME = assay: Herbicidal pre-emergence action (Table A6); format: in vivo, Stellaria media; conditions: application rate 320 g/ha; visual grading after ca. 3 weeks
Outline: as §2

ZEAMX [20] = assay: Pre-emergence effects on crop plants (Table D1); format: in vivo, Zea mays; conditions: crop plant; application rate 80 g/ha; visual grading after ca. 3 weeks
ALOMY [21] = assay: Herbicidal post-emergence action, section E (Table E2); format: in vivo, Alopecurus myosuroides; conditions: application rate 320 g/ha; assessed visually after ca. 3 weeks
Excerpt: as §1

LOLRI = assay: Herbicidal pre-emergence action (Table A3); format: in vivo, Lolium rigidum; conditions: application rate 320 g/ha; visual grading after ca. 3 weeks
Outline: as §2

MATIN [22] = assay: Herbicidal pre-emergence action, section C (Table C8); format: in vivo, Matricaria inodora; conditions: application rate 320 g/ha; visual grading after ca. 3 weeks
VIOTR [23] = assay: Herbicidal post-emergence action, section E (Table E10); format: in vivo, Viola tricolor; conditions: application rate 320 g/ha; assessed visually after ca. 3 weeks
Excerpt: as §1

POAAN = assay: Herbicidal pre-emergence action (Table A7); format: in vivo, Poa annua; conditions: application rate 320 g/ha; visual grading after ca. 3 weeks
Outline: as §2

O=C1N(Cc2cc(F)ccc2F)CCCC12CCCN(Cc1cc(F)ccc1F)C2=O (racemic) [I-017]
10%: post-emergence activity against ZEAMX (ZEAMX [1]) | pre-emergence activity against TRZAS (TRZAS [7]) | post-emergence activity against TRZAS (TRZAS [18]) | pre-emergence activity against ZEAMX (ZEAMX [20])
90%: pre-emergence activity against MATIN (MATIN [8]) | pre-emergence activity against VERPE (VERPE [9]) | pre-emergence activity against SETVI (SETVI [15]) | pre-emergence activity against ALOMY (ALOMY [16]) | pre-emergence activity against STEME (STEME)
20%: post-emergence activity against GLXMA (GLXMA [4]) | pre-emergence activity against BRSNW (BRSNW [5]) | pre-emergence activity against ORYZA (ORYZA [6]) | pre-emergence activity against GLXMA (GLXMA [11])
100%: pre-emergence activity against SETVI (SETVI [10]) | pre-emergence activity against ECHCG (ECHCG [12]) | post-emergence activity against POLCO (POLCO) | pre-emergence activity against DIGSA (DIGSA) | pre-emergence activity against ECHCG (ECHCG [19]) | pre-emergence activity against LOLRI (LOLRI) | pre-emergence activity against POAAN (POAAN)
0%: post-emergence activity against BRSNW (BRSNW [3]) | post-emergence activity against ORYZA (ORYZA [13])
80%: post-emergence activity against ECHCG (ECHCG [2]) | pre-emergence activity against VIOTR (VIOTR [14]) | post-emergence activity against VERPE (VERPE [17]) | post-emergence activity against ALOMY (ALOMY [21]) | pre-emergence activity against MATIN (MATIN [22]) | post-emergence activity against VIOTR (VIOTR [23])
